Reference: patent US20020022059A1, “Water treatment process” (priority 1996, published 2002)

Assays:
algae bloom = test: Application of algicide-flocculant treatment against an algae bloom in a South Texas water plant; settings: clarifier
[1] = pH 7, or more alkaline water
Description: Since the incoming raw water most often has a pH of 7 or above, this causes the crystals to acquire a coating of copper hydroxide that inhibits dissolution of the blue vitriol crystals into the water.

## O.O.O.O.O.O=S(=O)([O-])[O-].[Cu+2] [blue vitriol crystals, cupric sulfate pentahydrate]
Algae bloom
  outcome of algae bloom: had battled an algae bloom
[1]
  dissolution in water: do not dissolve very well
